Data as given in EP0615158A1, “A silver halide photographic light-sensitive material” (KONICA CORPORATION, priority 1993, dated 1994).

Settings: method of Shin Jikken Kagaku Koza, Kihon Sosa 1

| SMILES | solubility in water at 25°C |
| --- | --- |
| C=Cc1ccccc1 [styrene] | 0.03 % by weight |
| C=C(C)C(=O)OCCCC [butyl methacrylate] | 0.03 % by weight |
